This passage reports pest or weed control results from patent US20220112175A1, “PYRIDAZINES HERBICIDAL COMPOUNDS” (SYNGENTA CROP PROTECTION AG, priority 2019, published 2022).

What all share (assay): Post-emergence efficacy, glasshouse pot test
Format in all cases: in vivo

Assay [1] concerns Amaranthus palmeri (AMAPA). As to conditions: 312 h, read-out: Post-emergence efficacy AMAPA (100=total damage to plant; 0=no damage to plant). As to the method:
(§1) Seeds of a variety of test species were sown in standard soil in pots. After cultivation for 14 days (post-emergence) under controlled conditions in a glasshouse (at 24/16° C., day/night; 14 hours light; 65% humidity), the plants were sprayed with an aqueous spray solution derived from the dissolution of the technical active ingredient formula (I) in a small amount of acetone and a special solvent and emulsifier mixture referred to as IF50 (11.12% Emulsogen EL360 TM+44.44% N-methylpyrrolidone+44.44% Dowanol DPM glycol ether), to create a 50 g/l solution which was then diluted to required concentration using 0.25% or 1% Empicol ESC70 (Sodium lauryl ether sulphate)+1% ammonium sulphate as diluent.
(§2) The test plants were then grown in a glasshouse under controlled conditions (at 24/16° C., day/night; 14 hours light; 65% humidity) and watered twice daily. After 13 days the test was evaluated (100=total damage to plant; 0=no damage to plant).
(§3) Ipomoea hederacea (IPOHE), Euphorbia heterophylla (EPHHL), Chenopodium album (CHEAL), Amaranthus palmeri (AMAPA), Lolium perenne (LOLPE), Digitaria sanguinalis (DIGSA), Eleusine indica (ELEIN), Echinochloa crus-galli (ECHCG), Setaria faberi (SETFA)

The subject of the next assay is Setaria faberi (SETFA). As to conditions: 312 h, read-out: Post-emergence efficacy SETFA (100=total damage to plant; 0=no damage to plant). As to the method: as §1, §2, §3
Assay [2] deals with Ipomoea hederacea (IPOHE). As to conditions: 312 h, read-out: Post-emergence efficacy IPOHE (100=total damage to plant; 0=no damage to plant). How it is done:
as §1, §2, §3

Assay [3] deals with Echinochloa crus-galli (ECHCG). As to conditions: 312 h, read-out: Post-emergence efficacy ECHCG (100=total damage to plant; 0=no damage to plant). How it is done: as §1, §2, §3
In another assay the test system is Lolium perenne (LOLPE). The settings on record: 312 h, read-out: Post-emergence efficacy LOLPE (100=total damage to plant; 0=no damage to plant). As to the method:
as §1, §2, §3

For a further assay, the system named is Eleusine indica (ELEIN). As to conditions: 312 h, read-out: Post-emergence efficacy ELEIN (100=total damage to plant; 0=no damage to plant). As to the method: as §1, §2, §3
The test system of assay [4] is Chenopodium album (CHEAL). As to conditions: 312 h, read-out: Post-emergence efficacy CHEAL (100=total damage to plant; 0=no damage to plant). How it is done: as §1, §2, §3
In assay [5] the test system is Digitaria sanguinalis (DIGSA). The settings on record: 312 h, read-out: Post-emergence efficacy DIGSA (100=total damage to plant; 0=no damage to plant). As to the method:
as §1, §2, §3

The test system of assay [6] is Euphorbia heterophylla (EPHHL). As to conditions: 312 h, read-out: Post-emergence efficacy EPHHL (100=total damage to plant; 0=no damage to plant). How it is done:
as §1, §2, §3

Setting [7] is: Application rate 500 g/Ha, post-emergence spray, evaluated after 13 days.

Each structure is given as a SMILES string. Read-outs that look alike come from different tables or passages of the source.

For the compound `Cn1cnc(-c2cc[n+](CSCCC(=O)O)nc2)n1` [Compound A7], the pest or weed control at 500 g/ha in assay [1] (setting [7]) is 100%; in the assay with Setaria faberi (SETFA) (setting [7]), 100%; in assay [2] (setting [7]), 20%; in [3] (setting [7]), 100%; in the assay on Lolium perenne (LOLPE) (setting [7]), 70%; in the assay with Eleusine indica (ELEIN) (setting [7]), 90%. The pest or weed control at 500 g/ha was determined as 90% in [4] (setting [7]), 100% in [5] (setting [7]) and 70% in assay [6] (setting [7]).
Consider `CC(C)(NC(=O)C[n+]1ccc(-c2nccs2)cn1)C(=O)O` [Compound A9], for which the pest or weed control at 500 g/ha in assay [1] (setting [7]) is 100%; in the assay on Setaria faberi (SETFA) (setting [7]) it was 40%; in assay [2] (setting [7]), 20%; in [3] (setting [7]) it was 30%; in the assay on Lolium perenne (LOLPE) (setting [7]), 30%; in the assay with Eleusine indica (ELEIN) (setting [7]), 70%. The pest or weed control at 500 g/ha turned out to be 50% in assay [4] (setting [7]), 40% in [5] (setting [7]) and 80% in assay [6] (setting [7]).
Turning to `O=C(O)CNC(=O)C[n+]1ccc(-c2nccs2)cn1` [Compound A12], the pest or weed control at 500 g/ha in assay [1] (setting [7]) stood at 100%; in the assay with Setaria faberi (SETFA) (setting [7]), 50%; in [2] (setting [7]) it was 70%; in assay [3] (setting [7]), 90%; in the assay with Lolium perenne (LOLPE) (setting [7]), 50%; in the assay with Eleusine indica (ELEIN) (setting [7]), 70%. The pest or weed control at 500 g/ha in assay [4] (setting [7]) stood at 90%; in [5] (setting [7]), 40%; in [6] (setting [7]), 100%.
Turning to `O=C(O)CNS(=O)(=O)CC[n+]1ccc(-c2nccs2)cn1` [Compound A17, 2-[2-(4-thiazol-2-ylpyridazin-1-ium-1-yl)ethylsulfonylamino]acetic acid 2,2,2-trifluoroacetate], the pest or weed control at 500 g/ha turned out to be 0% in assay [1] (setting [7]); 20% in the assay with Setaria faberi (SETFA) (setting [7]); 10% in [2] (setting [7]); 20% in [3] (setting [7]); 0% with Lolium perenne (LOLPE) (setting [7]); 10% with Eleusine indica (ELEIN) (setting [7]). For the same compound, the results for the pest or weed control at 500 g/ha in assay [4] (setting [7]), in [5] (setting [7]) and in assay [6] (setting [7]) were 30%, 80% and 20%, respectively.
Consider `CN(CC(=O)O)C(=O)C[n+]1ccc(-c2nccs2)cn1` [Compound A11], for which the pest or weed control at 500 g/ha in [1] (setting [7]) is 90%; in the assay with Setaria faberi (SETFA) (setting [7]) it was 50%; in assay [2] (setting [7]) it was 20%; in [3] (setting [7]), 50%; in the assay on Lolium perenne (LOLPE) (setting [7]), 30%; in the assay with Eleusine indica (ELEIN) (setting [7]), 50%. The pest or weed control at 500 g/ha in assay [4] (setting [7]) amounted to 20%; in assay [5] (setting [7]), 40%; in [6] (setting [7]) it was 90%.
As for `Cn1cnc(-c2cc[n+](CC(=O)NCC(=O)O)nc2)n1` [Compound A2, 2-[[2-[4-(1-methyl-1,2,4-triazol-3-yl)pyridazin-1-ium-1-yl]acetyl]amino]acetic acid chloride], the pest or weed control at 500 g/ha was determined as 100% in assay [1] (post-emergence); 100% in the assay with Setaria faberi (SETFA) (post-emergence); 40% in assay [2] (post-emergence); 100% in assay [3] (post-emergence); 40% with Lolium perenne (LOLPE) (post-emergence); 80% in the assay with Eleusine indica (ELEIN) (post-emergence). Besides, the figures for the pest or weed control at 500 g/ha in assay [4] (post-emergence), in assay [5] (post-emergence) and in assay [6] (post-emergence) were 70%, 100% and 50%, respectively.
On to `CN(CCS(=O)(=O)[O-])C(=O)C[n+]1ccc(-c2ncn(C)n2)cn1` [Compound A6], for which the pest or weed control at 500 g/ha in assay [1] (setting [7]) stood at 90%; in the assay with Setaria faberi (SETFA) (setting [7]) it was 80%; in [2] (setting [7]), 30%; in assay [3] (setting [7]) it was 90%; in the assay on Lolium perenne (LOLPE) (setting [7]) it was 20%; in the assay with Eleusine indica (ELEIN) (setting [7]), 80%. In addition, the pest or weed control at 500 g/ha in assay [4] (setting [7]) was 80%; in [5] (setting [7]), 90%; in assay [6] (setting [7]), 70%.
For the compound `Cn1cnc(-c2cc[n+](CC(=O)NCCS(=O)(=O)[O-])nc2)n1` [Compound A5, 2-[[2-[4-(1-methyl-1,2,4-triazol-3-yl)pyridazin-1-ium-1-yl]acetyl]amino]ethanesulfonate], the pest or weed control at 500 g/ha in assay [1] (setting [7]) worked out at 90%; with Setaria faberi (SETFA) (setting [7]), 90%; in assay [2] (setting [7]), 20%; in assay [3] (setting [7]), 100%; with Lolium perenne (LOLPE) (setting [7]), 50%; in the assay on Eleusine indica (ELEIN) (setting [7]), 60%. Moreover, the pest or weed control at 500 g/ha in [4] (setting [7]) was 80%; in [5] (setting [7]), 90%; in [6] (setting [7]), 60%.
